For eight molecules, GI50 and TGI results are on record in PubChem BioAssay (NCI).

Among the test systems are OVCAR-5 ovarian; NCI/ADR-RES ovarian; HOP-62 NSCLC; HS 578T breast; HCT-116 colon; SK-OV-3 ovarian; CAKI-1 renal; LOX IMVI melanoma; SF-268 CNS; U251 CNS.
Common to all, as to assay: NCI-60 cell line screen, 48 h

Each structure is given as a SMILES string. Values joined by “and” are separate entries in the source; they are usually repeats but may differ in a detail not shown here. Equal entries are not always repeated.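 Five concentrations, 48 hours, 96-well plates. The concentration for 50% growth inhibition is given as GI50. TGI marks complete inhibition of growth.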

On to `Cc1ccc(Cl)c(NS(=O)(=O)c2ccc(-c3cnc(C4CC4)o3)cc2)c1`, for which the GI50 in the test with OVCAR-5 ovarian was 0.439 µM; in the test with NCI/ADR-RES ovarian, 0.0618 µM; with HOP-62 NSCLC, 0.268 µM; in the test with HS 578T breast, 0.0729 µM; in the test with HCT-116 colon it was 0.0537 µM; with SK-OV-3 ovarian, 3.31 µM. Further, the GI50 is 0.0531 µM in the test with CAKI-1 renal, 0.226 µM in the test on LOX IMVI melanoma, 3.33 µM in the test with SF-268 CNS and 0.142 µM in the test on U251 CNS. The TGI was greater than 100 µM with OVCAR-5 ovarian; 6.04 µM in the test with NCI/ADR-RES ovarian; greater than 83.7 µM in the test on HOP-62 NSCLC; greater than 69.6 µM in the test with HS 578T breast; greater than 36.8 µM with HCT-116 colon; 68.8 µM in the test with SK-OV-3 ovarian. Moreover, the TGI in the test with CAKI-1 renal is 10.1 µM; in the test with LOX IMVI melanoma, 18.5 µM; in the test with SF-268 CNS, greater than 66.3 µM; in the test on U251 CNS, 26.5 µM.

In the case of `O=C1NC2(CCCCC2)C(=O)N1CCN(CCCl)CCCl`, the GI50 with OVCAR-5 ovarian was greater than 25 µM; in the test on NCI/ADR-RES ovarian, greater than 25 µM; in the test with HOP-62 NSCLC, greater than 25 µM; in the test on HCT-116 colon it was greater than 25 µM; in the test on SK-OV-3 ovarian, greater than 25 µM; with CAKI-1 renal it was 19.5 µM. Further, the GI50 with LOX IMVI melanoma was greater than 25 µM; with SF-268 CNS it was > 25 µM and 112 µM; with U251 CNS, greater than 25 µM. The TGI was greater than 250 µM in the test on OVCAR-5 ovarian; > 25 µM and 184 µM with NCI/ADR-RES ovarian; > 25 µM and 149 µM with HOP-62 NSCLC; greater than 25 µM with HS 578T breast; greater than 250 µM with HCT-116 colon; > 25 µM and 250 µM in the test with SK-OV-3 ovarian. Also, the TGI with CAKI-1 renal is 25 µM and 175 µM; in the test on LOX IMVI melanoma, greater than 250 µM; with SF-268 CNS it was greater than 250 µM; in the test on U251 CNS, greater than 250 µM.

As to `OC1CCCC2CCC[N-]C12.OC1CCCC2CCC[N-]C12.[O]=[V][OH]` (centres undefined), the GI50 is 9.99 µM in the test on OVCAR-5 ovarian; 2.82 µM in the test on NCI/ADR-RES ovarian; 7.15 µM in the test on HOP-62 NSCLC; 21.2 µM in the test with HS 578T breast; 2.66 µM in the test with HCT-116 colon; 6.25 µM with SK-OV-3 ovarian. Also, the GI50 is 21.9 µM in the test with CAKI-1 renal, 6.09 µM in the test with LOX IMVI melanoma, 4.04 µM in the test on SF-268 CNS and 1.87 µM with U251 CNS. In addition, the TGI is greater than 100 µM with OVCAR-5 ovarian; 15.1 µM with NCI/ADR-RES ovarian; greater than 100 µM with HOP-62 NSCLC; greater than 100 µM in the test on HS 578T breast; 11.5 µM in the test with HCT-116 colon; 55.9 µM in the test with SK-OV-3 ovarian. The TGI was 85.3 µM with CAKI-1 renal, 33.6 µM with LOX IMVI melanoma, greater than 100 µM in the test on SF-268 CNS and 5.72 µM with U251 CNS.

Consider `Cc1c2ccncc2c(C)c2c1sc1ccccc12`, for which the TGI with OVCAR-5 ovarian was determined as 46.7 µM; in the test on NCI/ADR-RES ovarian, 25 µM; in the test with HOP-62 NSCLC, 21.9 µM; with HS 578T breast it was 39.5 µM; in the test on HCT-116 colon, 15.8 µM; with SK-OV-3 ovarian it was 34.4 µM. In addition, the TGI is 27.9 µM in the test with CAKI-1 renal, 21.5 µM in the test with LOX IMVI melanoma, 64.3 µM in the test on SF-268 CNS and 23.8 µM in the test with U251 CNS.

As to `Oc1ccc(C(O)(c2ccccc2)c2ccccc2)c2ccccc12`, the TGI with OVCAR-5 ovarian came out at 5.96 µM; in the test on NCI/ADR-RES ovarian, 6.58 µM; in the test on HOP-62 NSCLC it was 7.16 µM; with HS 578T breast, 44.8 µM; with HCT-116 colon it was 10.7 µM; with SK-OV-3 ovarian, 14.1 µM. In addition, the TGI was determined as 11.1 µM with CAKI-1 renal, 2.62 µM with LOX IMVI melanoma, 9.63 µM with SF-268 CNS and 2.91 µM in the test with U251 CNS.

For `Nc1ncc(-c2ccc3ncnc(N4CCc5ccc(Cl)cc54)c3c2)cc1C(F)(F)F`, the GI50 in the test on OVCAR-5 ovarian is 0.916 µM; in the test on NCI/ADR-RES ovarian, 2.26 µM; in the test with HOP-62 NSCLC it was 1.74 µM; in the test with HS 578T breast, 0.326 µM; with HCT-116 colon, 2.53 µM; in the test on SK-OV-3 ovarian it was 1.3 µM. Further, the GI50 was 0.457 µM in the test on CAKI-1 renal, 0.734 µM in the test with LOX IMVI melanoma, 1.13 µM in the test on SF-268 CNS and 2.65 µM in the test on U251 CNS. In addition, the TGI is 14.4 µM with OVCAR-5 ovarian; 91.1 µM in the test with NCI/ADR-RES ovarian; 13.2 µM in the test on HOP-62 NSCLC; 3.05 µM with HS 578T breast; 16.6 µM in the test on HCT-116 colon; 7.04 µM in the test on SK-OV-3 ovarian. For the same molecule, the TGI in the test with CAKI-1 renal came to 5.56 µM; with LOX IMVI melanoma it was 11.9 µM; with SF-268 CNS, 24.7 µM; in the test on U251 CNS, 16.6 µM.

With `O=C1C=C(OCC=C(C(F)(F)F)C(F)(F)F)c2ccccc2C1=O`, the GI50 with OVCAR-5 ovarian is 2.45 µM; with NCI/ADR-RES ovarian it was 3.21 µM; in the test on HOP-62 NSCLC, 1.87 µM; in the test on HS 578T breast, 2.06 µM; with HCT-116 colon, 2.07 µM; with SK-OV-3 ovarian it was 3.45 µM. The GI50 in the test with CAKI-1 renal was 3.15 µM; in the test on LOX IMVI melanoma, 1.56 µM; in the test on SF-268 CNS, 2.53 µM; with U251 CNS, 1.84 µM. Also, the TGI with OVCAR-5 ovarian worked out at 5.87 µM; in the test on NCI/ADR-RES ovarian it was 14.7 µM; in the test with HOP-62 NSCLC, 3.69 µM; in the test on HS 578T breast, 7.21 µM; in the test with HCT-116 colon it was 5.08 µM; with SK-OV-3 ovarian, 12 µM. Besides, the TGI in the test with CAKI-1 renal was 10.4 µM; with LOX IMVI melanoma, 3.46 µM; in the test with SF-268 CNS, 7.42 µM; with U251 CNS, 3.83 µM.

Turning to `Cc1nc2sc3c(N)ncnc3c2c(C)c1C`, the GI50 in the test with OVCAR-5 ovarian is greater than 25 µM; with NCI/ADR-RES ovarian it was greater than 25 µM; with HOP-62 NSCLC, greater than 25 µM; in the test on HS 578T breast, 24.9 µM; in the test on HCT-116 colon it was greater than 25 µM; with SK-OV-3 ovarian, greater than 25 µM. The GI50 in the test with CAKI-1 renal, with LOX IMVI melanoma, in the test on SF-268 CNS and in the test on U251 CNS was greater than 25 µM in each case. Further, the TGI with OVCAR-5 ovarian, with NCI/ADR-RES ovarian, in the test on HOP-62 NSCLC, in the test on HS 578T breast, with HCT-116 colon and in the test with SK-OV-3 ovarian was greater than 25 µM in each case. Besides, the TGI in the test with CAKI-1 renal, in the test with LOX IMVI melanoma, in the test with SF-268 CNS and in the test on U251 CNS was greater than 25 µM in each case.
